From ChEMBL document CHEMBL4602617, “Discovery and optimization of heteroaryl piperazines as potent and selective PI3Kδ inhibitors” (Bioorg Med Chem Lett, 2020)

Key:
[1] = target: PI3-kinase p110-delta/p85-alpha (Homo sapiens, UniProt O00329); assay: Inhibition of recombinant human full-length N-terminal GST-tagged p110delta/untagged full-length p85alpha expressed in baculovirus infected Sf21 cells using PIP2 as substrate preincubated for 15 mins followed by substrate addition and measured after 1 hr by HTRF assay
Chain of PI3-kinase p110-delta/p85-alpha (P27986 whole entry, one chain of several): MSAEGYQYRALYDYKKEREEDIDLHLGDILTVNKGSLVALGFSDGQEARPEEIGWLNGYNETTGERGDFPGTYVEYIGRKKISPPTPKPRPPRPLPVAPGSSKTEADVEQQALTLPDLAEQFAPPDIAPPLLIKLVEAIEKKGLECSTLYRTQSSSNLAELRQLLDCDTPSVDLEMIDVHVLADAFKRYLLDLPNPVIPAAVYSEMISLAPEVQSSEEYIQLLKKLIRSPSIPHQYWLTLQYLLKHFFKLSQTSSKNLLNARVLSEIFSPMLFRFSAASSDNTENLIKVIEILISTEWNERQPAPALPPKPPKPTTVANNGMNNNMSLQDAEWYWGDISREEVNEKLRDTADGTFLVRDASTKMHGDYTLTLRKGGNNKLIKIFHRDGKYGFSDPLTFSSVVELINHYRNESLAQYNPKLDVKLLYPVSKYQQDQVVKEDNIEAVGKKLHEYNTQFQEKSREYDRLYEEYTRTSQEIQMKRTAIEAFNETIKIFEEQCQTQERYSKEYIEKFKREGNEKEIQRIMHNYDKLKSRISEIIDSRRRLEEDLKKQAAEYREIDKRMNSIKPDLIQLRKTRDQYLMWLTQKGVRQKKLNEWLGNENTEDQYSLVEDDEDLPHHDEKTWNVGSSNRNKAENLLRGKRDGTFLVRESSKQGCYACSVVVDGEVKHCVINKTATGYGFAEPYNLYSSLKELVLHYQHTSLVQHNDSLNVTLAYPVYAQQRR

[2] = species on record: Homo sapiens; assay: (§1) Selectivity index, ratio IC50 for inhibition of recombinant human full-length N-terminal His6-tagged p110alpha/untagged full-length p85alpha expressed in baculovirus infected Sf21 cells to ratio IC50 for inhibition of recombinant human full-length N-terminal GST-tagged p110delta/untagged full-length p85alpha expressed in baculovirus infected Sf21 cells
[3] = species on record: Homo sapiens; assay: as §1, with “p110beta/untagged” for “p110alpha/untagged”
[4] = species on record: Homo sapiens; assay: Selectivity index, ratio IC50 for inhibition of recombinant human N-terminal His6-tagged full-length p120gamma expressed in Sf21 insect cells to ratio IC50 for inhibition of recombinant human full-length N-terminal GST-tagged p110delta/untagged full-length p85alpha expressed in baculovirus infected Sf21 cells
[5] = target: T1, Phosphatidylinositol 4,5-bisphosphate 3-kinase catalytic subunit delta isoform (Homo sapiens, UniProt O00329); assay: Inhibition of PI3K delta in human whole blood assessed as inhibition of anti-IgE-stimulated CysLt release in basophils preincubated for 30 mins followed by anti-IgE stimulation and measured after 20 mins; type: tissue-based
T1 sequence (O00329 whole entry): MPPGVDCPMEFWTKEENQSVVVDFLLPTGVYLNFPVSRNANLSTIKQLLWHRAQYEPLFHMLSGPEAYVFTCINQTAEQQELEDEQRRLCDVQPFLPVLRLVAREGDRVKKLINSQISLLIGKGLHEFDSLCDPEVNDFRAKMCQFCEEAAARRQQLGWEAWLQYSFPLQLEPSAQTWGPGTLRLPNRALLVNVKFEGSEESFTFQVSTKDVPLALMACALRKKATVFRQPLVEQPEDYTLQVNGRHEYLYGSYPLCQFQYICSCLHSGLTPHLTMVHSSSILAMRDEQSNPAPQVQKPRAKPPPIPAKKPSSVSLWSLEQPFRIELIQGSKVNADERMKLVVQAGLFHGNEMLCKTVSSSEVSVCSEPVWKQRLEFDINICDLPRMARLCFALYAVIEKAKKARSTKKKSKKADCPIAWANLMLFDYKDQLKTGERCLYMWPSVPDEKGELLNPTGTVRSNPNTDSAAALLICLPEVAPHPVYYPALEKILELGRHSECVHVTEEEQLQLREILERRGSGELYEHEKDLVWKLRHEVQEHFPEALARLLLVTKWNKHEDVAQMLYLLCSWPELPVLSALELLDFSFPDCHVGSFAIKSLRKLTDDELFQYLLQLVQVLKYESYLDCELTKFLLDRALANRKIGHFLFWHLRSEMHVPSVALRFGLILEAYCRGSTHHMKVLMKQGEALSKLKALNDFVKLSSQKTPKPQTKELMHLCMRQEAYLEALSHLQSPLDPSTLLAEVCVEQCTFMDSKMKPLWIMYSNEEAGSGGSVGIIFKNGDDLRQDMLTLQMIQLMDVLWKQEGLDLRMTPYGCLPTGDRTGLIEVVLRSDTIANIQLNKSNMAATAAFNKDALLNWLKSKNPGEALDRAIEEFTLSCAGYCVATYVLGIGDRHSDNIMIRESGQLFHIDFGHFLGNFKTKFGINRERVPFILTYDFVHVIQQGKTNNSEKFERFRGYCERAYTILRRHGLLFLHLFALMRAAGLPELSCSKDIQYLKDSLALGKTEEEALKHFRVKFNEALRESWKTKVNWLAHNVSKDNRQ

[6] = Distribution coefficient, logD of compound by HPLC analysis; type: physicochemical; details: octanol/water
[7] = Clearance in rat liver microsomes; type: ADME, Microsome; details: read-out: CLH
[8] = Clearance in human liver microsomes; type: ADME, Microsome; details: read-out: CLH
[9] = Clearance in Wistar Han rat plasma at 0.05 mg/kg, iv administered as cassette dose; type: ADME, organism-based
[10] = Unbound clearance in Wistar Han rat at 0.05 mg/kg, iv administered as cassette dose; type: ADME, organism-based; details: in vivo
[11] = Volume of drug distribution in Wistar Han rat at 0.05 mg/kg, iv administered as cassette dose; type: ADME, organism-based; details: in vivo
[12] = Half life in Wistar Han rat at 0.05 mg/kg, iv administered as cassette dose; type: ADME, organism-based; details: in vivo
[13] = Protein binding in Wistar Han rat plasma at 0.05 mg/kg, iv administered as cassette dose; type: ADME, organism-based; details: read-out: PPB (converted)
[14] = Intrinsic clearance in rat hepatocytes; type: ADME, cell-based, Hepatocyte; details: read-out: CLH
[15] = Intrinsic clearance in human hepatocytes; type: ADME, cell-based, Hepatocyte; details: read-out: CLH

Structure (SMILES) | IC50 [1] | IC50 [5] | logD [6] | CLint scaled [7] | CLint scaled [8] | clearance [9] | CL free [10] | Vd [11] | half-life [12] | fraction unbound [13] | CLint scaled [14] | CLint scaled [15] | Ratio IC50 [2] | Ratio IC50 [3] | Ratio IC50 [4]
N#Cc1cnc(-c2cnc3[nH]ccc3c2)nc1N1C[C@@H]2C[C@H]1CN2c1cccc(F)c1 | 0.918 µM |  |  |  |  |  |  |  |  |  |  |  | 8 | > 14 | > 14
Cn1cc(-c2ncc(C#N)c(N3C[C@@H]4C[C@H]3CN4c3cccc(F)c3)n2)cn1 | 0.031 µM | 2.96 µM | 3.1 | 1080 mL/min/kg | 76 mL/min/kg | 68 mL/min/kg | 4857 mL/min/kg | 4.7 L/kg | 66 min | 0.014 |  |  | 160 | 308 | > 407
Cn1cc(-c2ncc(C#N)c(N3C[C@@H]4C[C@H]3CN4CC3CC3)n2)cn1 | 1.43 µM | 6.97 µM | 1.5 | 158 mL/min/kg | < 16 mL/min/kg |  |  |  |  |  |  |  |  |  | 
N#Cc1cnc(-c2cccnc2)nc1N1C[C@@H]2C[C@H]1CN2c1cccc(Cl)c1 | 0.474 µM |  | 3.82 |  |  |  |  |  |  |  |  |  | 62 | 14 | > 105
Cn1cc(-c2ncc(C#N)c(N3C[C@@H]4C[C@H]3CN4S(=O)(=O)C3CC3)n2)cn1 | 1.19 µM | 4.12 µM | 1.6 | < 36 mL/min/kg | < 16 mL/min/kg |  |  |  |  |  |  |  | > 10 | 10 | 10
Cn1cc(-c2ncc(C#N)c(N3CC4CCC(C3)N4c3cccc(F)c3)n2)cn1 | 1.03 µM |  | 3.3 | 529 mL/min/kg | 62 mL/min/kg |  |  |  |  |  |  |  | > 12 | > 12 | > 12
N#Cc1cnc(N2Cc3cn[nH]c3C2)nc1N1C[C@@H]2C[C@H]1CN2c1cccc(F)c1 | 0.086 µM |  | 2.9 |  |  |  |  |  |  |  |  |  | > 146 | > 146 | > 146
N#Cc1cnc(-c2ccccc2)nc1N1C[C@@H]2C[C@H]1CN2c1cccc(F)c1 | > 10 µM |  | 4.5 |  |  |  |  |  |  |  |  |  |  |  | 
Cn1cc(-c2ncc(C#N)c(N3CCN(c4cccc(F)c4)C(C)(C)C3)n2)cn1 | 1.52 µM |  | 3.6 | 2050 mL/min/kg | 91 mL/min/kg |  |  |  |  |  |  |  | > 8 | > 8 | > 8
Cn1cc(-c2ncc(C#N)c(N3CCN(c4cccc(F)c4)CC3)n2)cn1 | 1.6 µM |  | 3.2 |  |  |  |  |  |  |  |  |  | > 8 | > 8 | > 8
N#Cc1cnc(-c2ccnc3[nH]ccc23)nc1N1C[C@@H]2C[C@H]1CN2c1cccc(F)c1 | 0.056 µM |  | 3.4 |  |  |  |  |  |  |  |  |  | 76 | 93 | 225
N#Cc1cnc(-c2cccnc2)nc1N1C[C@@H]2C[C@H]1CN2c1cccc(F)c1 | 0.364 µM |  | 3.43 |  |  | 90 mL/min/kg |  | 3.6 L/kg | 36 min |  | 234 mL/min/kg | 69 mL/min/kg | > 27 | > 27 | > 27

Now from value to compound, other results behind:

IC50 [1] | IC50 [5] | logD [6] | CLint scaled [7] | CLint scaled [8] | clearance [9] | CL free [10] | Vd [11] | half-life [12] | fraction unbound [13] | CLint scaled [14] | CLint scaled [15] | Structure (SMILES) | Ratio IC50 [2] | Ratio IC50 [3] | Ratio IC50 [4]
0.161 µM | 0.258 µM | 1.1 | < 36 mL/min/kg | < 16 mL/min/kg | 46 mL/min/kg | 85 mL/min/kg | 0.9 L/kg | 12 min | 0.54 |  |  | Cn1cc(-c2ncc(C#N)c(N3C[C@@H]4C[C@H]3CN4C(=O)C3CC3)n2)cn1 | > 78 | 78 | 78
0.033 µM | 0.219 µM | 1.8 | < 36 mL/min/kg | < 16 mL/min/kg |  |  |  |  |  |  |  | C[C@@H]1CN(c2cnc(C#N)c(-c3cnn(C)c3)n2)CCN1C(=O)C1CC1 | > 384 | > 384 | > 384
0.263 µM | 2.32 µM | 1.4 | < 36 mL/min/kg | < 16 mL/min/kg |  |  |  |  |  |  |  | CCC(=O)N1CCN(c2nc(-c3cnn(C)c3)ncc2C#N)C[C@H]1C | > 48 | > 48 | > 48
1.05 µM | 5.71 µM | 1.7 | < 36 mL/min/kg | < 16 mL/min/kg |  |  |  |  |  |  |  | C[C@@H]1CN(c2nc(-c3cnn(C)c3)ncc2C#N)CCN1C(=O)C1(C)CC1 | > 12 | > 12 | > 12
0.165 µM |  | 3.3 |  |  |  |  |  |  |  |  |  | C[C@@H]1CN(c2nc(-c3cnn(C)c3)ncc2C#N)CCN1c1cccc(F)c1 | > 76 | > 76 | > 76
2.19 µM |  | 0.8 |  |  |  |  |  |  |  |  |  | CCNC(=O)N1C[C@@H]2C[C@H]1CN2c1nc(-c2cnn(C)c2)ncc1C#N | > 6 | 6 | 6
0.185 µM | 0.737 µM | 1.9 | 39 mL/min/kg | 50 mL/min/kg |  |  |  |  |  |  |  | C[C@@H]1CN(c2nc(-c3cnn(C)c3)cnc2C#N)CCN1C(=O)C1CC1 | > 67 | > 67 | > 67
0.374 µM | 1.56 µM | 2 | < 36 mL/min/kg | < 16 mL/min/kg |  |  |  |  |  |  |  | C[C@@H]1CN(c2nc(-c3cnn(C)c3)ncc2C#N)CCN1C(=O)C1CCC1 | > 33 | > 33 | > 33
0.032 µM | 0.187 µM | 1.9 | 54 mL/min/kg | < 16 mL/min/kg |  |  |  |  |  |  |  | C[C@@H]1C[C@H]1C(=O)N1CCN(c2nc(-c3cnn(C)c3)ncc2C#N)C[C@H]1C | > 394 | > 394 | > 394
0.108 µM | 0.329 µM | 1.5 | < 36 mL/min/kg | 21 mL/min/kg |  |  |  |  |  |  |  | C[C@@H]1CN(c2nc(-c3cnn(C)c3)ncc2C#N)CCN1C(=O)C1CC1 | > 116 | > 116 | > 116
0.079 µM | 0.557 µM | 2 | < 36 mL/min/kg | < 16 mL/min/kg |  |  |  |  |  |  |  | CC1CC1C(=O)N1CCN(c2nc(-c3cnn(C)c3)ncc2C#N)C[C@H]1C (mixture of isomers) | > 159 | > 159 | 159
0.021 µM | 0.764 µM | 2 | 39 mL/min/kg | < 16 mL/min/kg |  |  |  |  |  |  |  | C[C@@H]1CN(c2ncc(C#N)c(-c3cnn(C)c3)n2)CCN1C(=O)C1CC1 | > 583 | > 583 | 764
